14 compounds from patent US10407429B2, “Pyrazolo[1,5-a]triazin-4-amine derivatives useful in therapy” (Curovir AB, priority 2015, dated 2019) can be followed below.

Type in all cases: cell-based
In one experiment the test system is Enterovirus 68. The experiment is described as follows: Antiviral CPE assay in mammalian cell culture. Particulars: Enterovirus D, EV68, read-out: inhibition capacity (IC50) EV68.
The test system of another experiment is coxsackie B2 virus. The experiment is described as follows: Antiviral CPE assay in mammalian cell culture. The following applies: read-out: inhibition capacity (IC50) B2.
The subject of a further experiment is coxsackie B3 virus. The experiment is described as follows: Antiviral CPE assay in mammalian cell culture. Particulars: Enterovirus B, B3, read-out: inhibition capacity (IC50) B3.
A further experiment has as its system Enterovirus 71. The experiment is described as follows: Antiviral CPE assay in mammalian cell culture. Particulars: Enterovirus A, EV71, prevention of viral CPE, read-out: inhibition capacity (IC50) EV71.
The test system of a further experiment is coxsackie B5virus. The experiment is described as follows: Antiviral CPE assay in mammalian cell culture. Particulars: read-out: inhibition capacity (IC50) B5.
The next experiment has as its system Enterovirus 6. The experiment is described as follows: Antiviral CPE assay in mammalian cell culture. Particulars: prevention of viral CPE, read-out: inhibition capacity (IC50) EV6.
In a further experiment the test system is polio virus Sabin 1. The experiment is described as follows: organism not typed. The following applies: read-out: inhibition capacity (IC50) Polio 1.
A further experiment concerns Enterovirus 30. The experiment is described as follows: Antiviral CPE assay in mammalian cell culture. The following applies: Enterovirus, read-out: inhibition capacity (IC50) EV30.
In another experiment the test system is coxsackie B1 virus. The experiment is described as follows: Antiviral CPE assay in mammalian cell culture. The following applies: read-out: inhibition capacity (IC50) Bl.
In a further experiment the test system is coxsackie B 4 virus. The experiment is described as follows: Antiviral CPE assay in mammalian cell culture. The following applies: Enterovirus B, B4, read-out: inhibition capacity (IC50) B4.

Some results are limits rather than exact numbers.

As to `COc1ccc(-c2c(C)nn3c(NCC4CCCO4)nc(C)nc23)cc1OC` (centres unmarked) [Example 18, 8-(3,4-dimethoxyphenyl)-2,7-dimethyl-N-(tetrahydrofuran-2-ylmethyl)pyrazolo[1,5-a][1,3,5]triazin-4-amine], the IC50 with Enterovirus 68, in the experiment on coxsackie B2 virus, in the experiment with coxsackie B3 virus, in the experiment with Enterovirus 71, with coxsackie B5virus and with Enterovirus 6 was below 1000 nM each time. Besides, the IC50 with polio virus Sabin 1, in the experiment on Enterovirus 30, in the experiment with coxsackie B1 virus and in the experiment with coxsackie B 4 virus was below 1000 nM throughout.
As for `COc1ccc(-c2c(C)nn3c(NCc4ccc(NS(C)(=O)=O)cc4)nc(C)nc23)cc1OC` [Example 19, N-[4-[[[8-(3,4-dimethoxyphenyl)-2,7-dimethyl-pyrazolo[1,5-a][1,3,5]triazin-4-yl]amino]methyl]phenyl]methanesulfonamide], the IC50 in the experiment on Enterovirus 68 is below 100 nM; with coxsackie B2 virus, below 100 nM; in the experiment with coxsackie B3 virus it was below 100 nM; in the experiment with Enterovirus 71, below 10 nM; in the experiment with coxsackie B5virus, below 1000 nM; in the experiment on Enterovirus 6, below 1000 nM. The IC50 in the experiment on polio virus Sabin 1 is below 100 nM; in the experiment on Enterovirus 30, below 100 nM; in the experiment on coxsackie B1 virus it was below 100 nM; with coxsackie B 4 virus it was below 10 nM.
Regarding `COc1ccc(-c2c(C)nn3c(NCc4ccccc4)nc(C)nc23)cc1OC` [Example 20, N-benzyl-8-(3,4-dimethoxyphenyl)-2,7-dimethyl-pyrazolo[1,5-a][1,3,5]triazin-4-amine], the IC50 in the experiment on Enterovirus 68, in the experiment on coxsackie B2 virus, in the experiment with coxsackie B3 virus, with Enterovirus 71, in the experiment with coxsackie B5virus and in the experiment with Enterovirus 6 was below 100 nM in each case. Moreover, the half-maximal inhibitory concentration (IC50) was below 100 nM in the experiment with polio virus Sabin 1, below 100 nM in the experiment on Enterovirus 30, below 100 nM in the experiment with coxsackie B1 virus and below 10 nM with coxsackie B 4 virus.
Take `COc1ccc(-c2c(C)nn3c(NCc4cccs4)nc(C)nc23)cc1OC` [Example 21, 8-(3,4-dimethoxyphenyl)-2,7-dimethyl-N-(2-thienylmethyl)pyrazolo[1,5-a][1,3,5]triazin-4-amine]: the IC50 in the experiment with Enterovirus 68 is below 100 nM; in the experiment with coxsackie B2 virus it was below 10 nM; in the experiment on coxsackie B3 virus it was below 100 nM; in the experiment on Enterovirus 71, below 100 nM; in the experiment with coxsackie B5virus it was below 100 nM; in the experiment with Enterovirus 6 it was below 100 nM. For the same compound, the IC50 was below 100 nM in the experiment with polio virus Sabin 1, below 100 nM with Enterovirus 30, below 10 nM with coxsackie B1 virus and below 100 nM in the experiment on coxsackie B 4 virus.
As for `COc1ccc(-c2c(C)nn3c(NCc4cccnc4)nc(C)nc23)cc1OC` [Example 22, 8-(3,4-dimethoxyphenyl)-2,7-dimethyl-N-(3-pyridylmethyl)pyrazolo[1,5-a][1,3,5]triazin-4-amine], the IC50 in the experiment with Enterovirus 68, in the experiment on coxsackie B2 virus, with coxsackie B3 virus, in the experiment on Enterovirus 71, with coxsackie B5virus and in the experiment with Enterovirus 6 was below 100 nM each time. The IC50 in the experiment with polio virus Sabin 1, with Enterovirus 30, in the experiment on coxsackie B1 virus and in the experiment with coxsackie B 4 virus was below 100 nM in each case.
In the case of `COc1ccc(-c2c(C)nn3c(NCc4ccc(C)o4)nc(C)nc23)cc1OC` [Example 23, 8-(3,4-dimethoxyphenyl)-2,7-dimethyl-N-[(5-methyl-2-furyl)methyl]pyrazolo[1,5-a][1,3,5]triazin-4-amine], the IC50 with Enterovirus 68, with coxsackie B2 virus, in the experiment on coxsackie B3 virus, in the experiment on Enterovirus 71, in the experiment on coxsackie B5virus and in the experiment with Enterovirus 6 was below 100 nM each time. The IC50 in the experiment with polio virus Sabin 1 was below 10 nM; in the experiment on Enterovirus 30, below 100 nM; in the experiment with coxsackie B1 virus, below 10 nM; with coxsackie B 4 virus it was below 10 nM.
For the compound `COC(=O)NS(=O)(=O)c1ccc(CNc2nc(C)nc3c(-c4ccc(OC)c(OC)c4)c(C)nn23)cc1` [Example 24, methyl N-[4-[[[8-(3,4-dimethoxyphenyl)-2,7-dimethyl-pyrazolo[1,5-a][1,3,5]triazin-4-yl]amino]methyl]phenyl]sulfonylcarbamate], the IC50 with Enterovirus 68 is below 1000 nM; in the experiment with coxsackie B2 virus, below 1000 nM; in the experiment with coxsackie B3 virus it was above 1000 nM; in the experiment on Enterovirus 71, below 1000 nM; in the experiment with coxsackie B5virus it was above 1000 nM; in the experiment on Enterovirus 6 it was above 1000 nM. Also, the IC50 with polio virus Sabin 1 was below 1000 nM; in the experiment on Enterovirus 30, above 1000 nM; with coxsackie B1 virus, above 1000 nM; in the experiment with coxsackie B 4 virus, below 1000 nM.
As for `CCC(=O)NS(=O)(=O)c1ccc(CNc2nc(C)nc3c(-c4ccc(OC)c(OC)c4)c(C)nn23)cc1` [Example 25, N-[4-[[[8-(3,4-dimethoxyphenyl)-2,7-dimethyl-pyrazolo[1,5-a][1,3,5]triazin-4-yl]amino]methyl]phenyl]sulfonylpropanamide], the IC50 in the experiment with Enterovirus 68 is below 1000 nM; in the experiment with coxsackie B2 virus, above 1000 nM; in the experiment on coxsackie B3 virus it was above 1000 nM; in the experiment on Enterovirus 71, above 1000 nM; in the experiment with coxsackie B5virus it was above 1000 nM; in the experiment with Enterovirus 6, above 1000 nM. Besides, the IC50 in the experiment on polio virus Sabin 1, in the experiment on Enterovirus 30, in the experiment with coxsackie B1 virus and in the experiment on coxsackie B 4 virus was above 1000 nM each time.
In the case of `CNS(=O)(=O)c1ccc(CNc2nc(C)nc3c(-c4ccc(OC)c(OC)c4)c(C)nn23)cc1` [Example 26, N-methyl-4-[[[8-(3,4-dimethoxyphenyl)-2,7-dimethyl-pyrazolo[1,5-a][1,3,5]triazin-4-yl]amino]methyl]benzenesulfonamide], the IC50 is above 1000 nM with Enterovirus 68; below 100 nM with coxsackie B2 virus; below 1000 nM with coxsackie B3 virus; below 1000 nM with Enterovirus 71; below 1000 nM in the experiment on coxsackie B5virus; below 1000 nM with Enterovirus 6. The IC50 is below 100 nM in the experiment with polio virus Sabin 1, below 1000 nM in the experiment with Enterovirus 30, below 1000 nM in the experiment on coxsackie B1 virus and below 100 nM in the experiment with coxsackie B 4 virus.
In the case of `COc1ccc(-c2c(C)nn3c(NCc4ccn(C)n4)nc(C)nc23)cc1OC` [Example 27, 8-(3,4-dimethoxyphenyl)-2,7-dimethyl-N-[(1-methyl-1H-pyrazol-3-yl)methyl]pyrazolo[1,5-a][1,3,5]triazin-4-amine], the IC50 with Enterovirus 68 is below 10 nM; in the experiment on coxsackie B2 virus, below 10 nM; in the experiment with coxsackie B3 virus, below 100 nM; in the experiment with Enterovirus 71 it was below 100 nM; in the experiment with coxsackie B5virus, below 100 nM; in the experiment on Enterovirus 6, below 1000 nM. In addition, the IC50 in the experiment on polio virus Sabin 1 was below 10 nM; with Enterovirus 30, below 100 nM; with coxsackie B1 virus it was below 10 nM; with coxsackie B 4 virus, below 10 nM.
As for `COc1ccc(-c2c(C)nn3c(NCc4cnco4)nc(C)nc23)cc1OC` [Example 28, 8-(3,4-dimethoxyphenyl)-2,7-dimethyl-N-[(1,3-oxazol-5-yl)methyl]pyrazolo[1,5-a][1,3,5]triazin-4-amine], the IC50 in the experiment on Enterovirus 68 is below 10 nM; in the experiment on coxsackie B2 virus, below 100 nM; in the experiment on coxsackie B3 virus it was below 100 nM; in the experiment on Enterovirus 71 it was below 100 nM; with coxsackie B5virus, below 1000 nM; in the experiment on Enterovirus 6 it was below 100 nM. The IC50 was below 100 nM with polio virus Sabin 1, above 1000 nM with Enterovirus 30, below 100 nM in the experiment on coxsackie B1 virus and below 100 nM with coxsackie B 4 virus.
Regarding `COc1ccc(-c2c(C)nn3c(NCC4CCNCC4)nc(C)nc23)cc1OC` [Example 29, 8-(3,4-dimethoxyphenyl)-2,7-dimethyl-N-[(piperidin-4-yl)methyl]pyrazolo[1,5-a][1,3,5]triazin-4-amine], the IC50 in the experiment on Enterovirus 68, in the experiment with coxsackie B2 virus, with coxsackie B3 virus, in the experiment with Enterovirus 71, in the experiment on coxsackie B5virus and with Enterovirus 6 was above 1000 nM each time. For the same compound, the IC50 in the experiment with polio virus Sabin 1, in the experiment with Enterovirus 30, with coxsackie B1 virus and with coxsackie B 4 virus was above 1000 nM in each case.
Consider `COc1ccc(-c2c(C)nn3c(NCc4cnc(C)nc4)nc(C)nc23)cc1OC` [Example 30, 8-(3,4-dimethoxyphenyl)-2,7-dimethyl-N-[(2-methylpyrimidin-5-yl)methyl]pyrazolo[1,5-a][1,3,5]triazin-4-amine], for which the IC50 in the experiment on Enterovirus 68 was below 100 nM; with coxsackie B2 virus, below 1000 nM; in the experiment on coxsackie B3 virus, below 1000 nM; in the experiment on Enterovirus 71 it was below 100 nM; with coxsackie B5virus, below 1000 nM; with Enterovirus 6, below 1000 nM. The IC50 is below 100 nM in the experiment on polio virus Sabin 1, below 100 nM in the experiment with Enterovirus 30, below 1000 nM in the experiment on coxsackie B1 virus and below 100 nM with coxsackie B 4 virus.
Take `COc1ccc(-c2c(C)nn3c(NCc4ccnnc4)nc(C)nc23)cc1OC` [Example 31, 8-(3,4-dimethoxyphenyl)-2,7-dimethyl-N-[(pyridazin-4-yl)methyl]pyrazolo[1,5-a][1,3,5]triazin-4-amine]: the IC50 with Enterovirus 68 is below 100 nM; in the experiment with coxsackie B2 virus, below 1000 nM; with coxsackie B3 virus, below 1000 nM; in the experiment with Enterovirus 71, below 100 nM; with coxsackie B5virus, below 1000 nM; in the experiment on Enterovirus 6 it was below 1000 nM. The IC50 was below 1000 nM with polio virus Sabin 1, above 1000 nM with Enterovirus 30, below 1000 nM in the experiment with coxsackie B1 virus and below 10 nM in the experiment with coxsackie B 4 virus.
